Format in all cases: in vivo
Assay [1] has as its system Avena fatua (AVEFA). Nature of the assay: Post-emergence herbicidal activity, glasshouse pot test. To be noted: Avena fatua, 312 h, rate 250 g/ha, evaluated after 13 days, glasshouse, read-out: Post-emergence activity AVEFA (100=total damage to plant; 0=no damage to plant). Put shortly: (§1)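 Spray solution: technical a.i. formulated in acetone/water (50:50) with 0.5% Tween 20, diluted in water. Applied to pots 1 d (pre) or 8 d (post) after sowing; glasshouse 24/16° C day/night, 14 h light, 65% humidity. Rated at 13 d, 0–100 damage.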

For assay [2], the system named is Echinochloa crus-galli (ECHCG). The description is as above. To be noted: Echinochloa crus-galli, 312 h, rate 250 g/ha, evaluated after 13 days, glasshouse, read-out: Post-emergence activity ECHCG (100=total damage to plant; 0=no damage to plant). Put shortly:
as §1

Assay [3] has as its system Alopecurus myosuroides (ALOMY). The description is as above. The following applies: Alopecurus myosuroides, 312 h, rate 250 g/ha, evaluated after 13 days, glasshouse, read-out: Post-emergence activity ALOMY (100=total damage to plant; 0=no damage to plant). Put shortly: as §1
Assay [4] relates to Lolium perenne (LOLPE). Described as above. The following applies: Lolium perenne, 312 h, rate 250 g/ha, evaluated after 13 days, glasshouse, read-out: Post-emergence activity LOLPE (100=total damage to plant; 0=no damage to plant). Put shortly:
as §1

In assay [5] the test system is Avena fatua (AVEFA). Nature of the assay: Pre-emergence herbicidal activity, glasshouse pot test. To be noted: Avena fatua, 312 h; Rate 250 g/ha; pre-emergence spray; evaluated after 13 days; read-out: Pre-emergence activity AVEFA (100=total damage to plant; 0=no damage to plant). Put shortly:
as §1

Assay [6] concerns Echinochloa crus-galli (ECHCG). The assay is described as above. To be noted: Echinochloa crus-galli, 312 h; Rate 250 g/ha; pre-emergence spray; evaluated after 13 days; read-out: Pre-emergence activity ECHCG (100=total damage to plant; 0=no damage to plant). Put shortly:
as §1

The subject of assay [7] is Alopecurus myosuroides (ALOMY). The assay is described as above. The following applies: Alopecurus myosuroides, 312 h; Rate 250 g/ha; pre-emergence spray; evaluated after 13 days; read-out: Pre-emergence activity ALOMY (100=total damage to plant; 0=no damage to plant). Put shortly: as §1
In assay [8] the test system is Lolium perenne (LOLPE). Described as above. The following applies: Lolium perenne, 312 h; Rate 250 g/ha; pre-emergence spray; evaluated after 13 days; read-out: Pre-emergence activity LOLPE (100=total damage to plant; 0=no damage to plant). Put shortly:
as §1

In the case of `CCc1ccc(Oc2nc3ccccc3s2)cc1C1=C(O)CC2(CCOCC2)CC1=O` [Example A-303], the pest or weed control at 250 g/ha came out at 100% in assay [1]; 100% in assay [2]; 100% in assay [3]; 100% in assay [4]; 80% in assay [5]; 100% in assay [6]. Also, the pest or weed control at 250 g/ha is 80% in assay [7] and 90% in assay [8].

With `CCc1ccc(Oc2nc3ccc(Cl)cc3s2)cc1C1=C(O)CC2(CCOCC2)CC1=O` [Example A-304], the pest or weed control at 250 g/ha was 100% in assay [1]; 100% in assay [2]; 100% in assay [3]; 100% in assay [4]; 80% in assay [5]; 100% in assay [6]. Moreover, the pest or weed control at 250 g/ha in assay [7] came to 80%; in assay [8], 70%.

Take `CCc1ccc(Oc2cnc3ccc(Br)cc3n2)cc1C1=C(O)CC2(CCOCC2)CC1=O` [Example A-305]: the pest or weed control at 250 g/ha stood at 100% in assay [1]; 100% in assay [2]; 100% in assay [3]; 100% in assay [4]; 60% in assay [5]; 100% in assay [6]. Also, the pest or weed control at 250 g/ha amounted to 80% in assay [7] and 90% in assay [8].

Regarding `CCc1ccc(Oc2ccc(C#N)cc2C(F)(F)F)cc1C1=C(O)CC2(CCOCC2)CC1=O` [Example A-306], the pest or weed control at 250 g/ha is 80% in assay [1]; 100% in assay [2]; 70% in assay [3]; 60% in assay [4]; 0% in assay [5]; 100% in assay [6]. In addition, the results for the pest or weed control at 250 g/ha in assay [7] and in assay [8] were 60% and 70%, respectively.

Consider `CCc1ccc(Oc2cnc3ccccc3n2)cc1C1=C(O)CC2(CCOCC2)CC1=O` [Example A-307], for which the pest or weed control at 250 g/ha in assay [1] stood at 100%; in assay [2] it was 100%; in assay [3], 100%; in assay [4], 100%; in assay [5], 70%; in assay [6], 100%. Moreover, the pest or weed control at 250 g/ha in assay [7] came to 100%; in assay [8], 90%.

Take `CCc1ccc(Oc2nc3cc(Cl)ccc3s2)cc1C1=C(O)CC2(CCOCC2)CC1=O` [Example A-308]: the pest or weed control at 250 g/ha in assay [1] came out at 100%; in assay [2], 100%; in assay [3], 90%; in assay [4] it was 100%; in assay [5], 80%; in assay [6] it was 100%. Moreover, the pest or weed control at 250 g/ha in assay [7] was determined as 90%; in assay [8], 70%.

As to `CCc1ccc(Oc2ccc([N+](=O)[O-])cc2C(F)(F)F)cc1C1=C(O)CC2(CCOCC2)CC1=O` [Example A-309], the pest or weed control at 250 g/ha in assay [1] is 70%; in assay [2], 100%; in assay [3], 50%; in assay [4], 50%; in assay [5], 0%; in assay [6] it was 70%. Besides, the pest or weed control at 250 g/ha in assay [7] is 40%; in assay [8], 20%.

Take `CCc1ccc(Oc2ncc(Br)cn2)cc1C1=C(O)CC2(CCOCC2)CC1=O` [Example A-310]: the pest or weed control at 250 g/ha in assay [1] is 80%; in assay [2], 100%; in assay [3], 100%; in assay [4], 90%; in assay [5] it was 50%; in assay [6], 100%. Besides, the pest or weed control at 250 g/ha in assay [7] amounted to 100%; in assay [8], 70%.

As for `CCc1ccc(Oc2cnc3cc(F)ccc3n2)cc1C1=C(O)CC2(CCOCC2)CC1=O` [Example A-311], the pest or weed control at 250 g/ha in assay [1], in assay [2], in assay [3], in assay [4], in assay [5] and in assay [6] was 100% each time. For the same compound, the pest or weed control at 250 g/ha in assay [7] is 90%; in assay [8], 100%.

As to `CC1(C)OC(C)(C)C(O)=C(c2cc(Oc3ccc4cc(Cl)ccc4n3)ccc2C2CC2)C1=O` [Example A-312], the pest or weed control at 250 g/ha in assay [1] was determined as 100%; in assay [2], 100%; in assay [3], 100%; in assay [4] it was 100%; in assay [5] it was 70%; in assay [6], 100%. Further, the values for the pest or weed control at 250 g/ha in assay [7] and in assay [8] were 70% and 100%, respectively.

On to `CCc1ccc(Oc2ccc(C#N)c(Cl)c2)cc1C1=C(O)[C@@H]2CC[C@](C)(C1=O)C2(C)C` [Example A-313], for which the pest or weed control at 250 g/ha in assay [1] turned out to be 90%; in assay [2], 100%; in assay [3] it was 90%; in assay [4] it was 80%; in assay [5], 70%; in assay [6] it was 100%. Further, the pest or weed control at 250 g/ha in assay [7] turned out to be 80%; in assay [8], 100%.

Regarding `CCc1ccc(Oc2ccc(C(F)(F)F)cc2Cl)cc1C1=C(O)[C@@H]2CC[C@](C)(C1=O)C2(C)C` [Example A-314], the pest or weed control at 250 g/ha in assay [1] came out at 70%; in assay [2] it was 100%; in assay [3], 40%; in assay [4] it was 70%; in assay [5], 20%; in assay [6], 100%. For the same compound, the pest or weed control at 250 g/ha in assay [7] turned out to be 30%; in assay [8] it was 100%.

In the case of `CCc1ccc(Oc2ccc(C(F)(F)F)c(Cl)c2)cc1C1=C(O)[C@@H]2CC[C@](C)(C1=O)C2(C)C` [Example A-315], the pest or weed control at 250 g/ha in assay [1] turned out to be 80%; in assay [2], 90%; in assay [3] it was 40%; in assay [4], 90%; in assay [5], 60%; in assay [6] it was 100%. Also, the values for the pest or weed control at 250 g/ha in assay [7] and in assay [8] were 80% and 100%, respectively.

Turning to `CCc1ccc(Oc2ccc([N+](=O)[O-])c(Cl)c2)cc1C1=C(O)[C@@H]2CC[C@](C)(C1=O)C2(C)C` [Example A-316], the pest or weed control at 250 g/ha in assay [1] turned out to be 80%; in assay [2], 100%; in assay [3] it was 50%; in assay [4] it was 40%; in assay [5], 60%; in assay [6], 100%. The pest or weed control at 250 g/ha in assay [7] worked out at 70%; in assay [8], 100%.

As for `CCc1ccc(Oc2ncc(C(F)(F)F)cc2Cl)cc1C1=C(O)[C@@H]2CC[C@](C)(C1=O)C2(C)C` [Example A-317], the pest or weed control at 250 g/ha in assay [1], in assay [2], in assay [3], in assay [4], in assay [5] and in assay [6] was 100% each time. Moreover, the pest or weed control at 250 g/ha in assay [7] and in assay [8] was 100% throughout.

Consider `CCc1ccc(Oc2ncc(Cl)cc2Cl)cc1C1=C(O)[C@@H]2CC[C@](C)(C1=O)C2(C)C` [Example A-318], for which the pest or weed control at 250 g/ha came out at 90% in assay [1]; 100% in assay [2]; 90% in assay [3]; 100% in assay [4]; 90% in assay [5]; 100% in assay [6]. The figures for the pest or weed control at 250 g/ha in assay [7] and in assay [8] were 90% and 100%, respectively.

The values above are taken from patent US8865623B2, “Herbicidally active cyclic diones and derivatives thereof, processes for their preparation, compositions, and method of controlling weeds” (Syngenta Limited, priority 2009, dated 2014).
